Columns and labels:
[1] = test system: Klebsiella pneumoniae ATCC 4352; assay: Coated coupon surface antimicrobial test, Klebsiella pneumoniae; type: cell-based; conditions: Stainless Steel 2″ × 2″ coupons, tested by Applicant, challenged with 3.8 × 10^7 bacteria; copolymer 0.0299 g/m2, Aegis 2.36 g/m2
Protocol: (§1) The silylated copolymer of Example II hereinabove was dissolved in isopropanol (IPA) to give a 30% w/v (IPA) solution. This IPA solution was then diluted to a 0.1% w/v concentration with additional IPA solvent.
(§2) 2″×2″ test coupons of Formica and 316 Stainless Steel were first washed with soap and water then wiped with a 70 wt. % aqueous ethanol solution and dried. The copolymer 2600 solution was applied via misting onto the coupon surfaces using a Preval sprayer. The surfaces of the coupons were sprayed until completely covered by the copolymer solution and then dried horizontally for >3 hr. at room temperature. Control coupons were sprayed with 30 wt. % aqueous IPA solution followed by drying under identical conditions. The final areal concentration of the dried copolymer on the test coupon surface was 0.0299 g/m2. All coupons were then irradiated with a C wavelength germicidal Ultraviolet Lamp (UVC) situated within a biosafety cabinet. […]
Antimicrobial; testing was performed by Applicant and independently by Professor. Charles Gerba, Ph.D. As a control, Applicant also determined the antimicrobial properties of a material sold in commerce by Aegis under the tradename AEM 5772-5. […]

[2] = test system: Staphylococcus aureus ATCC 6538; assay: Coated coupon surface antimicrobial test, Staphylococcus aureus; type: cell-based; conditions: Stainless Steel 2″ × 2″ coupons, tested by Applicant, challenged with 1.1 × 10^7 bacteria; copolymer 0.0299 g/m2, Aegis 2.36 g/m2
Protocol: as §1, §2
Antimicrobial; testing was performed by Applicant and independently by Professor. Charles Gerba, Ph.D. As a control, Applicant also determined the antimicrobial properties of a material sold in commerce by Aegis under the tradename AEM 5772-5.

CCCCCCCCCCCCCCCCCC[N+](C)(C)CCC[Si](O)(O)O.[Cl-] [Aegis Quaternary Ammonium Silane, 3-(trihydroxysilyl) propyldimethyloctadecyl ammonium chloride]
Ave. Log10 Reduction ± SD v. control 12 min exposure [1]: 1.15 ± 0.26 log10 | Ave. Log10 Reduction ± SD v. control 10 min exposure [2]: 0.00 log10

Reference: patent publication US9403944B2, “Antipathogenic guanidinium copolymer” (priority 2012, dated 2016)
